{
  "source": "patent US20230372264A1",
  "about": "(priority 2020, published 2023)",
  "origin": "cited, not measured here",
  "key": {"Candida sp.": {"system": "Candida sp.", "conditions": "reference [27]"}, "Streptococcus spp.": {"system": "Streptococcus spp.", "conditions": "reference [27]"}, "Staphylococcus aureus": {"system": "Staphylococcus aureus", "conditions": "reference [27]"}, "[1]": {"system": "human breast cancer cells", "conditions": "reference [16]"}, "SARS-CoV": {"system": "SARS-CoV", "conditions": "reference [9]"}, "[2]": {"system": "ACE2 receptor bonds with viral S-glycoproteins", "conditions": "in vitro cellular models, cholesterol depletion, reference [5]"}},
  "data": [
    {"molecule": "OCCc1ccc(O)c(O)c1", "note": "[hydroxytyrosol, 4-(2-hydroxyethyl)-1,2-dihydroxybenzene]", "values": [
      {"measurement": "growth reduction", "setting": "Candida sp.", "value": 40, "unit": "%"},
      {"measurement": "growth reduction", "setting": "Streptococcus spp.", "value": 40, "unit": "%"},
      {"measurement": "growth reduction", "setting": "Staphylococcus aureus", "value": 40, "unit": "%"}
    ]},
    {"molecule": "hydroxypropyl-α-cyclodextrin", "values": [
      {"measurement": "effectiveness against migration vs hydroxypropyl-β-cyclodextrin", "setting": "[1]", "value": "twice as effective"}
    ]},
    {"molecule": "methyl-β-cyclodextrin [MβCD]", "values": [
      {"measurement": "inhibition of SARS-CoV infectivity", "setting": "SARS-CoV", "value": 90, "unit": "%"},
      {"measurement": "number of ACE2 receptor bonds with viral S-glycoproteins", "setting": "[2]", "value": "halves"}
    ]}
  ]
}
